Reference: patent US6821985B2, “Pharmaceutical combinations for the treatment of stroke and traumatic brain injury” (Pfizer, Inc., priority 2000, dated 2004)

Tests used:
[1] = target: T1, NR2B subunit containing NMDA receptor (Rattus norvegicus, UniProt P35439+Q00960); assay: Displacement of specific binding of racemic [3H](+)-(1S,2S)-1-(4-hydroxy-phenyl)-2-(4-hydroxy-4-phenylpiperidino)-1-propanol ([3H]CP-101,606) from rat forebrain membranes; details: ratio of the IC50s; greater than three is considered selective for NR2B over α1
T1 construct: (+)-(1S, 2S)-1-(4-hydroxy-phenyl)-2-(4-hydroxy-4-phenylpiperidino)-1-propanol from rat forebrain membranes; from tissue; host or cells: forebrain membranes of adult male CD rats
Procedure: This affinity is assessed in a radioligand binding assay as described later in this application.
This affinity is assessed in a radioligand binding assay as described below.
The binding of racemic [^3H] […] Forebrains of adult male CD rats are homogenized in 0.32M sucrose at 4° C. The crude nuclear pellet is removed by centrifugation at 1,000×g for 10 minutes, and the supernatant centrifuged at 17,000×g for 25 minutes. The resulting pellet is resuspended in 5 mM Tris acetate pH 7.4 at 4° C. for 10 minutes to lyse cellular particles and again centrifuged at 17,000×g. The resulting pellet is washed twice in Tris acetate, resuspended at 10 mg protein/ml and stored at −20° C. until use.
For binding assays, membranes are thawed, homogenized, and diluted to 0.5 mg protein/ml with 50 mM Tris HCl, pH 7.4. Compounds under study are added at various concentrations followed by racemic [^3H] […] Following incubation for 20 min at 30° C. in a shaking water bath, samples are filtered onto Whatman GFB glass fiber filters using a MB-48R Cell Harvester (Brandel Research and Development Laboratories, Gaithersburg Md.). Filters are washed for 10 s with ice cold Tris HCl buffer and the radioactivity trapped on the filter quantified by liquid scintillation spectroscopy. Nonspecific binding is determined in parallel incubations containing 100 μM racemic (+)-(1 S, 2S)-1-(4-hydroxy-phenyl)-2-(4-hydroxy-4-phenylpiperidino)-1-propanol. Specific binding is defined as total binding minus nonspecific binding.
Affinity for the NR^2B subunit containing NMDA receptor is measured as the IC50 for displacement of specific binding of racemic [^3H] […] Affinity for the α1-adrengergic receptor is defined as the IC50 for displacement of specific binding of racemic [^3H]prazosin from rat brain membranes, measured as described by Greengrass and Bremner (Binding Characteristics of [3H]prazosin to Rat Brain α-Adrenergic Receptors, European Journal of Pharmacology, 55, 323-326, (1979)).

α1-adrenergic receptor = assay: Displacement of specific binding of [3H]prazosin from rat forebrain membranes; details: IC50 for displacement of specific binding, 0.2 nM radioligand
Procedure: Compounds of the formula I have selectivity for NR^2B subunit-containing NMDA receptors over α1-adrengergic receptors. Affinity for the NR^2B subunit containing NMDA receptor is measured as the IC50 for displacement of specific binding of racemic [^3H] (+)-(1S, 2S)-1-(4-hydroxy-phenyl)-2-(4-hydroxy-4-phenylpiperidino)-1-propanol from rat forebrain membranes (described above). Affinity for the α1-adrengergic receptor is defined as the IC50 for displacement of specific binding of racemic [^3H]prazosin from rat brain membranes, measured as described by Greengrass and Bremner (Binding Characteristics of [3H]prazosin to Rat Brain α-Adrenergic Receptors, European Journal of Pharmacology, 55, 323-326, (1979)).
Forebrains of adult male Sprague Dawley rats are homogenized in 20 volumes of ice cold 50 mM Tris/HCl buffer (pH 7.7). The homogenate is centrifuged at 50,000×g for 10 minutes at 4° C. The pellet is resuspended and centrifuged under identical conditions and the final pellet is resuspended in 80 volumes of 50 mM Tris/HCl (pH 8.0) at 4° C.
For binding assays, compounds under study are added at various concentrations to 500 μg membrane protein in 1 ml of 50 mM Tris/HCl buffer, followed by [^3H]prazosin (Amersham, specific activity 33 Ci/mmol, 0.2 nM final concentration). Following incubation for 30 min at 25° C. in a shaking water bath, samples are filtered onto Whatman GFB glass fiber filters using a MB-48R Cell Harvester (Brandel Research and Development Laboratories, Gaithersburg Md.). Filters are washed three times for 10 s with ice cold Tris HCl buffer and the radioactivity trapped on the filter quantified by liquid scintillation spectroscopy. Nonspecific binding is determined in parallel incubations containing 100 nM prazosin. Specific binding is defined as total binding minus nonspecific binding.

T1 sequence (Q00960 27-1482, other chains not shown): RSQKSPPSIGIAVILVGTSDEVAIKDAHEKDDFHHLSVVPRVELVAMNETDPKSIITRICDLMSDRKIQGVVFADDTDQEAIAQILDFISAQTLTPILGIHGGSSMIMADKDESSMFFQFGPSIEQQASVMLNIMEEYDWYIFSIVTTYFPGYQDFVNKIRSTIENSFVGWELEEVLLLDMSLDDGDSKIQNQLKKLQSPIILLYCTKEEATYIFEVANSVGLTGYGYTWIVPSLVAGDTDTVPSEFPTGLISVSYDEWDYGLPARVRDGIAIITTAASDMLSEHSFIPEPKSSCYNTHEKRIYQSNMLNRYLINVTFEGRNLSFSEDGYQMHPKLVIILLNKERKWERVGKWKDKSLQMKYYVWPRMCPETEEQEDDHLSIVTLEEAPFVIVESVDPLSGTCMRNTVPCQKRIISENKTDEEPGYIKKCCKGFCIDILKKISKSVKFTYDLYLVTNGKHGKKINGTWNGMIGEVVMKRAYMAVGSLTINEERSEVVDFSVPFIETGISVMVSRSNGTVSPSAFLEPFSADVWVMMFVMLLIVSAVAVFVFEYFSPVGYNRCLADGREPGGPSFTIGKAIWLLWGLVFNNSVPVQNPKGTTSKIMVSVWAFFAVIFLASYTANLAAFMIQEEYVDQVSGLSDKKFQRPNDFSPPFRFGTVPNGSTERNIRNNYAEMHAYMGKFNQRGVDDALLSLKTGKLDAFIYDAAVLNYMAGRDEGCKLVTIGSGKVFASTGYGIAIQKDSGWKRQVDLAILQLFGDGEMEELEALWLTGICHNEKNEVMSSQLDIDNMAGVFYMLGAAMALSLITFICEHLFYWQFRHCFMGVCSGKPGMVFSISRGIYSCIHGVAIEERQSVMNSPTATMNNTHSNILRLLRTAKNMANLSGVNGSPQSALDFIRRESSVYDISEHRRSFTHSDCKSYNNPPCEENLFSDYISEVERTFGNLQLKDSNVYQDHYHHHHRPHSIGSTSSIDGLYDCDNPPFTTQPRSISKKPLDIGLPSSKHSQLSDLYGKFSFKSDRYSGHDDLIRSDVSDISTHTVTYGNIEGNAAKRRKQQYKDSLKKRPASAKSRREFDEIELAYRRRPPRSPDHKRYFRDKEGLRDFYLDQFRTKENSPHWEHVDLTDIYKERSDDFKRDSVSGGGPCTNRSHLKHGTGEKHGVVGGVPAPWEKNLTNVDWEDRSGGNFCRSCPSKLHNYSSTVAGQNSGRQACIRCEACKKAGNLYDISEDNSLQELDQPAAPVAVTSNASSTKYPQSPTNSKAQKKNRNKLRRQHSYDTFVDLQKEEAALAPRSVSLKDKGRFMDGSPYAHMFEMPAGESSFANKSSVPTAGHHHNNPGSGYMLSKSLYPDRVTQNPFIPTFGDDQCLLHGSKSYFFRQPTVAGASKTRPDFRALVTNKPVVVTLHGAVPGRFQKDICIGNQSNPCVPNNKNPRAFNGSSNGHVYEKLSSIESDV

Oc1ccc2c(c1)OCC(N1CCC(O)(c3ccc(F)cc3)CC1)[C@H]2O (stereo in doubt)
melting point: 159 to 160 °C

COc1cc([C@H](O)[C@H](C)N2CCC(O)(c3ccccc3)CC2)ccc1O [(1S, 2S)-1-(4-hydroxy-3-methoxyphenyl)-2-(4-hydroxy-4-phenylpiperidino)-1-propanol]
Ratio [^3H]Prazosin/[^3H] (+)-(1S, 2S)-1-(4-hydroxy-phenyl)-2-(4-hydroxy-4-phenylpiperidino)-1-propanol [1]: 86
IC50 (α1-adrenergic receptor): 8.1 µM

Oc1ccc2c(c1)OC[C@@H](N1CCC(O)(c3ccc(F)cc3)CC1)[C@H]2O [(3R, 4S)-3-(4-(4-fluorophenyl)-4-hydroxypiperidin-1-yl)-chroman-4,7-diol]
Ratio [^3H]Prazosin/[^3H] (+)-(1S, 2S)-1-(4-hydroxy-phenyl)-2-(4-hydroxy-4-phenylpiperidino)-1-propanol [1]: ≧555
IC50 (α1-adrenergic receptor): > 10 µM

C[C@@H]([C@@H](O)c1ccc(O)cc1)N1CCC(O)(c2ccccc2)CC1 [(+)-(1S, 2S)-1-(4-hydroxy-phenyl)-2-(4-hydroxy-4-phenylpiperidino)-1-propanol]
IC50 (α1-adrenergic receptor): 19.5 µM

OC(CN1CCC(Cc2ccc(F)cc2)CC1)c1ccc(Cl)cc1 (centres unmarked) [Eliprodil, reference compound]
Ratio [^3H]Prazosin/[^3H] (+)-(1S, 2S)-1-(4-hydroxy-phenyl)-2-(4-hydroxy-4-phenylpiperidino)-1-propanol [1]: 2.2
IC50 (α1-adrenergic receptor): 0.98 ± 0.22 µM
